Source: PubChem BioAssay AID248 (DTP/NCI, 2004)
Inconclusive results and toxic doses are left out. Rule as the data show it: active = T/C of 150% or more; inactive = T/C below 125%.

System: L1210 leukemia ip in BDF1 mice, survival T/C
Experiment: NCI In Vivo Anticancer Drug Screen. Data for tumor model L1210 Leukemia (intraperitoneal) in B6D2F1 (BDF1) mice
Settings: endpoint: mean survival time, higher = longer survival
How it was run: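 Tumor cells were implanted, animals were treated, and survival was followed. The result divides the treated measurement by the vehicle-control measurement.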

[1] = dose: 100.0 mg/kg/injection, schedule: Q04DX003 (ip), vehicle: Klucel (hydroxypropylcellulose) (HPC)
[2] = dose: 200.0 mg/kg/injection, schedule: Q04DX003 (ip), vehicle: Klucel (hydroxypropylcellulose) (HPC)
[3] = dose: 400.0 mg/kg/injection, schedule: Q04DX003 (ip), vehicle: Klucel (hydroxypropylcellulose) (HPC)
[4] = dose: 50.0 mg/kg/injection, schedule: Q01DX009 (ip), vehicle: saline with Tween-80
[5] = dose: 100.0 mg/kg/injection, schedule: Q01DX009 (ip), vehicle: saline with Tween-80
[6] = dose: 200.0 mg/kg/injection, schedule: Q01DX009 (ip), vehicle: saline with Tween-80
[7] = dose: 100.0 mg/kg/injection, schedule: Q01DX001 (ip), vehicle: saline
[8] = dose: 200.0 mg/kg/injection, schedule: Q01DX001 (ip), vehicle: saline
[9] = dose: 400.0 mg/kg/injection, schedule: Q01DX001 (ip), vehicle: saline
[10] = dose: 100.0 mg/kg/injection, schedule: Q04DX002 (ip), vehicle: saline with Tween-80
[11] = dose: 200.0 mg/kg/injection, schedule: Q04DX002 (ip), vehicle: saline with Tween-80
[12] = dose: 400.0 mg/kg/injection, schedule: Q04DX002 (ip), vehicle: saline with Tween-80
[13] = dose: 100.0 mg/kg/injection, schedule: Q01DX001 (ip), vehicle: Klucel (hydroxypropylcellulose) (HPC)
[14] = dose: 200.0 mg/kg/injection, schedule: Q01DX001 (ip), vehicle: Klucel (hydroxypropylcellulose) (HPC)
[15] = dose: 400.0 mg/kg/injection, schedule: Q01DX001 (ip), vehicle: Klucel (hydroxypropylcellulose) (HPC)

Measured: T/C

Cc1ccc(C(Br)S(=O)(=O)c2ccccc2)cc1 (stereo unspecified)
inactive: dose: 100.0 mg/kg/injection, schedule: Q04DX002 (ip), vehicle: Klucel (hydroxypropylcellulose) (HPC) 97 % of control | dose: 200.0 mg/kg/injection, schedule: Q04DX002 (ip), vehicle: Klucel (hydroxypropylcellulose) (HPC) 86 % of control | dose: 400.0 mg/kg/injection, schedule: Q04DX002 (ip), vehicle: Klucel (hydroxypropylcellulose) (HPC) 111 % of control

Nc1nc2nc(N=Nc3ccc(S(N)(=O)=O)cc3)[nH]c2c(=O)[nH]1
inactive: [1] 96 % of control | [2] 93 % of control | [3] 99 % of control

COCC(C)C=O (stereo unspecified)
inactive: [4] 91 % of control | [5] 91 % of control | [6] 94 % of control

CN(C)CCCN=Cc1cc(Cl)ccc1O.CN(C)CCCN=Cc1cc(Cl)ccc1O.[Ni+2]
inactive: dose: 6.25 mg/kg/injection, schedule: Q04DX003 (ip), vehicle: saline with Tween-80 92 % of control | dose: 12.5 mg/kg/injection, schedule: Q04DX003 (ip), vehicle: saline with Tween-80 105 % of control | dose: 25.0 mg/kg/injection, schedule: Q04DX003 (ip), vehicle: saline with Tween-80 97 % of control

CCOc1ccc(NC(=O)OC(C)C)cc1
inactive: [1] 89 % of control | [2] 94 % of control | [3] 103 % of control

COc1ccc(C(=O)N2CCN(C)CC2)cc1OC
inactive: [7] 101 % of control | [8] 101 % of control | [9] 97 % of control

O=P1(O)Cc2ccccc2-c2ccccc21
inactive: dose: 100.0 mg/kg/injection, schedule: Q01DX001 (ip), vehicle: other 96 % of control | dose: 200.0 mg/kg/injection, schedule: Q01DX001 (ip), vehicle: other 101 % of control | dose: 400.0 mg/kg/injection, schedule: Q01DX001 (ip), vehicle: other 98 % of control

C[N+]1(CCNC2=CC(=O)C(NCC[N+]3(C)CCOCC3)=CC2=O)CCOCC1
inactive: dose: 5.0 mg/kg/injection, schedule: Q01DX001 (ip), vehicle: saline 103 % of control | dose: 10.0 mg/kg/injection, schedule: Q01DX001 (ip), vehicle: saline 101 % of control | dose: 20.0 mg/kg/injection, schedule: Q01DX001 (ip), vehicle: saline 101 % of control | dose: 40.0 mg/kg/injection, schedule: Q01DX001 (ip), vehicle: saline 101 % of control | dose: 80.0 mg/kg/injection, schedule: Q01DX001 (ip), vehicle: saline 97 % of control

CC12C=CC3(CCC4C(C)(C)C(OC5OC(CO)C(O)C(O)C5O)C(=O)CC4(C)C3CC1=O)C2 (stereo unspecified)
inactive: [7] 100 % of control | [8] 109 % of control | [9] 97 % of control

CCCc1ccccc1NC1=NCCO1
inactive: dose: 50.0 mg/kg/injection, schedule: Q04DX002 (ip), vehicle: saline with Tween-80 98 % of control | [10] 95 % of control | dose: 100.0 mg/kg/injection, schedule: Q04DX003 (ip), vehicle: saline with Tween-80 90 % of control | [11] 92 % of control | dose: 200.0 mg/kg/injection, schedule: Q04DX003 (ip), vehicle: saline with Tween-80 87 % of control | [12] 88 % of control | dose: 400.0 mg/kg/injection, schedule: Q04DX003 (ip), vehicle: saline with Tween-80 89 % of control

O=C(Nc1ccc(S(=O)(=O)NC2CCCCC2)cc1)OC(c1ccccc1)c1ccccc1
inactive: [7] 96 % of control | [8] 94 % of control | [9] 100 % of control

c1ccc(P(N2CCOCC2)N2CCOCC2)cc1
inactive: [10] 93 % of control | [11] 97 % of control | [12] 97 % of control

CCCCCCCCCCCCCC(=O)CC(=O)OC
inactive: dose: 75.0 mg/kg/injection, schedule: Q04DX003 (ip), vehicle: Klucel (hydroxypropylcellulose) (HPC) 94 % of control | [13] 103 % of control | dose: 150.0 mg/kg/injection, schedule: Q04DX003 (ip), vehicle: Klucel (hydroxypropylcellulose) (HPC) 106 % of control | [14] 100 % of control | dose: 300.0 mg/kg/injection, schedule: Q04DX003 (ip), vehicle: Klucel (hydroxypropylcellulose) (HPC) 93 % of control | [15] 96 % of control

CCCCCCNC1=C(C)C(=O)C(NCCCCCC)=C(C)C1=O
inactive: [7] 104 % of control | [8] 104 % of control | [9] 93 % of control

CC(C)CC(N)C(=O)O (stereo unspecified)
inactive: dose: 100.0 mg/kg/injection, schedule: Q01DX001 (ip), vehicle: carboxymethylcellulose (CMC) 87 % of control | dose: 200.0 mg/kg/injection, schedule: Q01DX001 (ip), vehicle: carboxymethylcellulose (CMC) 91 % of control | dose: 400.0 mg/kg/injection, schedule: Q01DX001 (ip), vehicle: carboxymethylcellulose (CMC) 91 % of control

COC(=O)C1=NN(c2ccccc2)CC1
inactive: [7] 98 % of control | dose: 100.0 mg/kg/injection, schedule: Q04DX003 (ip), vehicle: other 88 % of control | [8] 106 % of control | dose: 200.0 mg/kg/injection, schedule: Q04DX003 (ip), vehicle: other 94 % of control | [9] 90 % of control | dose: 400.0 mg/kg/injection, schedule: Q04DX003 (ip), vehicle: other 94 % of control

O=C(NCc1cnccn1)Nc1ccccc1
inactive: dose: 25.0 mg/kg/injection, schedule: Q01DX009 (ip), vehicle: saline 101 % of control | dose: 50.0 mg/kg/injection, schedule: Q01DX009 (ip), vehicle: saline 87 % of control | dose: 100.0 mg/kg/injection, schedule: Q01DX009 (ip), vehicle: saline 108 % of control | dose: 200.0 mg/kg/injection, schedule: Q01DX009 (ip), vehicle: saline 102 % of control | dose: 400.0 mg/kg/injection, schedule: Q01DX009 (ip), vehicle: saline 103 % of control

CC1(C)CCCC2(C)C(O)C3CCC2C31 (stereo unspecified)
inactive: [13] 96 % of control | [14] 91 % of control | [15] 90 % of control

CC(C)(C#N)c1ccnc2ccccc12
inactive: dose: 12.5 mg/kg/injection, schedule: Q01DX009 (ip), vehicle: Klucel (hydroxypropylcellulose) (HPC) 89 % of control | dose: 25.0 mg/kg/injection, schedule: Q01DX009 (ip), vehicle: Klucel (hydroxypropylcellulose) (HPC) 100 % of control | dose: 25.0 mg/kg/injection, schedule: Q04DX003 (ip), vehicle: Klucel (hydroxypropylcellulose) (HPC) 104 % of control | dose: 50.0 mg/kg/injection, schedule: Q04DX003 (ip), vehicle: Klucel (hydroxypropylcellulose) (HPC) 96 % of control | [1] 96 % of control

CCSc1ncc(C)c(Cl)n1
inactive: dose: 100.0 mg/kg/injection, schedule: Q01DX009 (ip), vehicle: water 103 % of control | dose: 100.0 mg/kg/injection, schedule: Q04DX003 (ip), vehicle: water 100 % of control | dose: 200.0 mg/kg/injection, schedule: Q01DX009 (ip), vehicle: water 94 % of control | dose: 200.0 mg/kg/injection, schedule: Q04DX003 (ip), vehicle: water 108 % of control | dose: 400.0 mg/kg/injection, schedule: Q01DX009 (ip), vehicle: water 100 % of control | dose: 400.0 mg/kg/injection, schedule: Q04DX003 (ip), vehicle: water 100 % of control

CS(=O)(=O)OCCN(CCOS(C)(=O)=O)c1ccc(N=O)c(Cl)c1
inactive: dose: 0.08 mg/kg/injection, schedule: Q01DX015 (ip), vehicle: saline 97 % of control | dose: 0.14 mg/kg/injection, schedule: Q01DX015 (ip), vehicle: saline 103 % of control | dose: 0.22 mg/kg/injection, schedule: Q01DX001 (ip), vehicle: saline 114 % of control | dose: 0.23 mg/kg/injection, schedule: Q01DX015 (ip), vehicle: saline 114 % of control | dose: 0.5 mg/kg/injection, schedule: Q01DX001 (ip), vehicle: saline 122 % of control | dose: 1.0 mg/kg/injection, schedule: Q01DX015 (ip), vehicle: saline 124 % of control | dose: 2.0 mg/kg/injection, schedule: Q01DX015 (ip), vehicle: saline 97 % of control | dose: 4.0 mg/kg/injection, schedule: Q01DX001 (ip), vehicle: saline 117 % of control | dose: 4.5 mg/kg/injection, schedule: Q01DX001 (ip), vehicle: saline 86 % of control

CCOc1ccc(Nc2cccc(O)c2)cc1
inactive: [4] 95 % of control | [5] 103 % of control | [6] 95 % of control
